Experiment [1] in a line: Weight gain of rats receiving fluocinolone by daily subcutaneous injection. The experiment is classed as in vivo, Wistar rats. Conditions: FIG. 39; systemic subcutaneous injection, 25 ug/kg daily for 22 days. Here is the method:
Forty Wistar rats were utilized in this study. The forty rats were divided into 4 groups. Group 1 rats (10 in total) each received fluocinolone acetonide via systemic subcutaneous injection at a dosage of 0.5 ug/kg daily. Group 2 rats (10 in total) each received fluocinolone acetonide via systemic subcutaneous injection at a dosage of 5 ug/kg daily. Group 3 rats (10 in total) each received fluocinolone acetonide via systemic subcutaneous injection at a dosage of 25 ug/kg daily. Group 4 rats (10 in total) were the control in this study and received saline injections.

For experiment [2] the following is noted: long term use of the drug; cited from earlier work.

Molecules are shown by their SMILES.

As to `CC1(C)O[C@@H]2C[C@H]3[C@@H]4C[C@H](F)C5=CC(=O)C=C[C@]5(C)[C@@]4(F)[C@@H](O)C[C@]3(C)[C@]2(C(=O)CO)O1` [fluocinolone acetonide, 6α-,9α-Difluoro-16 α-hydroxyprednisolone 16,17-acetonide], the “body weight increase compared to control rats (saline)” value in experiment [1] was “did not exhibit as much body weight increase as control rats”.

With `CC(C)CC(N(C)C)C1(c2ccc(Cl)cc2)CCC1` (stereo not shown) [Sibutramine], in experiment [2], the average weight loss is reported as 9.3 lbs. Take `CCCCCCCCCCC[C@@H](C[C@@H]1OC(=O)[C@H]1CCCCCC)OC(=O)[C@H](CC(C)C)NC=O` [Orlistat]: the average weight loss in experiment [2] is on record as 6.4 lbs.

For the compound `Cc1c(C(=O)NN2CCCCC2)nn(-c2ccc(Cl)cc2Cl)c1-c1ccc(Cl)cc1` [Rimonabant], the average weight loss in experiment [2] is recorded as 10.4 lbs.

Source of the values: patent US8231891B2, “Implantable drug depot for weight control” (Warsaw Orthopedic, Inc., priority 2009, dated 2012).
